One test has as its system S. aureus ATCC25923. Description: Sensitivity test (MIC, broth dilution per CLSI). Type of test: cell-based. The following applies: strain ATCC25923, MHB with 2% NaCl, 34° C., 24 hours, minimum concentration without colony growth. Here is the method: (§1) By referring to the methods and standards of the American Clinical and Laboratory Standards Institute (CLSI) for antimicrobial susceptibility testing, the drug resistance of each strain was verified. The MHB medium used in this test contained 2% NaCl (w/v).
(§2) Preparation of test bacteria: each bacterium was respectively inoculated in 5 ml MHB medium, and cultured overnight at 37° C. on a shaker. The bacterial solution was adjusted to 0.5 McFarland turbidity (MCF) unit, and further diluted by 100 folds. The final bacterial concentration was 5×10^5 cfu/ml.
(§3) Preparation of the flavonoids extract of C. paliurus leaves for application: 79.8 mg powder of the flavonoid extract from C. paliurus leaves prepared in Example 1 (based on the flavonoids proportion of 67.3581 wt. % in the flavonoids extract of C. paliurus leaves, the amount of flavonoids in the powder was 53.75 mg) was dissolved in 0.32 ml of DMSO, and further diluted with 3.68 ml MHB medium, to obtain the application solution of C. paliurus leaf with a flavonoids concentration at 13.44 mg/ml. […]
(§4) Sensitivity test: 100 μl of the bacterial solution prepared above was added to the wells with serial concentration of drugs and the medium control. […] The minimum drug concentration without colony growth was determined as the minimum inhibitory concentration (MIC).

In the next test the test system is MRSA-1. As to the kind of experiment: Sensitivity test (MIC, broth dilution per CLSI). Type of test: cell-based, Methicillin-resistant S. aureus. The conditions noted are these: strain MRSA-1, MHB with 2% NaCl, 34° C., 24 hours, minimum concentration without colony growth. On the procedure: as §1, §2
(§5) Preparation of the flavonoids extract of C. paliurus leaves for application: 79.8 mg powder of the flavonoid extract from C. paliurus leaves prepared in Example 1 (based on the flavonoids proportion of 67.3581 wt. % in the flavonoids extract of C. paliurus leaves, the amount of flavonoids in the powder was 53.75 mg) was dissolved in 0.32 ml of DMSO, and further diluted with 3.68 ml MHB medium, to obtain the application solution of C. paliurus leaf with a flavonoids concentration at 13.44 mg/ml.
(§6) 100 μl of medium was added into the second well, and serial 2-fold dilutions were prepared until to the ninth well. The 10th well was set as the medium control.
(§7) Sensitivity test: 100 μl of the bacterial solution prepared above was added to the wells with serial concentration of drugs and the medium control. The plate was placed in a humidified box and incubated at 34° C. for 24 hours. 20 μl of each bacterial solution was taken and diluted 50 times with the medium, then 100 μl of the diluted bacterial solution was spread on the culture plate and incubated overnight at 37° C. The minimum drug concentration without colony growth was determined as the minimum inhibitory concentration (MIC).

A further test relates to MRSA-2. Description: Sensitivity test (MIC, broth dilution per CLSI). Type of test: cell-based, Methicillin-resistant S. aureus. The conditions noted are these: strain MRSA-2, MHB with 2% NaCl, 34° C., 24 hours, minimum concentration without colony growth. Here is the method:
as §1, §2, §5, §6, §7

The subject of a further test is MRSA-3. As to the kind of experiment: Sensitivity test (MIC, broth dilution per CLSI). The following applies: strain MRSA-3, MHB with 2% NaCl, 34° C., 24 hours, minimum concentration without colony growth. The class given is cell-based, Methicillin-resistant S. aureus. On the procedure: as §1, §2, §5, §6, §7
A further test deals with MRSA-5. As to the kind of experiment: Sensitivity test (MIC, broth dilution per CLSI). Type of test: cell-based, Methicillin-resistant S. aureus. The following applies: strain MRSA-5, MHB with 2% NaCl, 34° C., 24 hours, minimum concentration without colony growth. On the procedure: as §1, §2, §5, §6, §7
For another test, the system named is MRSA strains. As to the kind of experiment: Sensitivity test, MRSA strains compared with ATCC25923. Type of test: cell-based, Methicillin-resistant S. aureus. The conditions noted are these: each MRSA strain vs ATCC25923. On the procedure: as §1, §2, §3, §4
The test system of the next test is MRSA-4. Description: Sensitivity test (MIC, broth dilution per CLSI). Type of test: cell-based, Methicillin-resistant S. aureus. The conditions noted are these: Staphylococcus aureus; strain MRSA-4; MHB with 2% NaCl, 34° C., 24 hours; minimum concentration without colony growth.
[1] abbreviates: Staphylococcus aureus, read-out: MIC.

Read-outs that look alike come from different tables or passages of the source.

Experimental for MRSA-4: Sensitivity test: 100 μl of the bacterial solution prepared above was added to the wells with serial concentration of drugs and the medium control. The plate was placed in a humidified box and incubated at 34° C. for 24 hours. […] The minimum drug concentration without colony growth was determined as the minimum inhibitory concentration (MIC).

In the case of `Cc1onc(-c2ccccc2)c1C(=O)N[C@@H]1C(=O)N2[C@@H]1SC(C)(C)[C@@H]2C(=O)[O-].[Na+]` [oxacillin sodium], the MIC was found to be 0.125 µg/mL in the test on S. aureus ATCC25923; 0.5 µg/mL against MRSA-1; 0.5 µg/mL with MRSA-2; 0.5 µg/mL in the test on MRSA-3; 0.5 µg/mL with MRSA-5. Also, in the test on MRSA strains, the “Sensitivity of each MRSA strain compared with S. aureus ATCC25923” value is recorded as “lower than that of the standard strain of S. aureus ATCC25923”.
Take `CC1(C)S[C@@H]2[C@H](NC(=O)Cc3ccccc3)C(=O)N2[C@H]1C(=O)O` [penicillin sodium]: the minimal inhibitory concentration (MIC) is 0.0312 µg/mL in the test on S. aureus ATCC25923 (setting [1]); 4 µg/mL with MRSA-1 (setting [1]); 1 µg/mL with MRSA-2 (setting [1]); 1 µg/mL with MRSA-3 (setting [1]); 4 µg/mL with MRSA-5 (setting [1]); 32 µg/mL with MRSA-4. Moreover, the “Sensitivity of each MRSA strain compared with S. aureus ATCC25923” value in the test with MRSA strains is recorded as “lower than that of the standard strain of S. aureus ATCC25923”.

Source of the values: patent US12605419B2, “Flavonoid extract of Cyclocarya paliurus leaves and antibacterial drugs and/or antibacterial agents containing thereof” (priority 2020, dated 2026).
